Assay results as given in patent publication US5955508A, “Method for the enhancement of lymphocyte activity against opportunistic microbial pathogens” (priority 1996, dated 1999).

Experiments:
K562 human tumor cells = assay: Incidence and metastasis of human K562 tumors in SCID mice reconstituted with human PBMC; assay type: in vivo
Method: The purpose of the present experiments was to determine whether d-FEN can enhance the ability of the human immune system to kill a human tumor cell line, vis. K562 human chronic myelogenous leukemia cells. Toward this end d-FEN and vehicle (VEH) treated young male severe combined immunodeficient (SCID) beige mice, reconstituted 4 days previously with human peripheral blood mononuclear cells (PBMC) obtained from two human volunteers, were injected with K562 cells and tumor size and number measured 13-18 days later.
SCID mice (n=36) were obtained from Harlan Sprague-Dawley Inc. (Indianapolis, Ind.). This inbred strain of mice are devoid of T, B, and natural killer (NK) cells. The animals were housed 3/cage in an AAALAC approved facility with a 12 h light-dark cycle (lights on at 07:00 h). The temperature and humidity of the facility were maintained between 72-75° F. and 52-55% respectively. Food (Purina mouse chow) and water were available ad libitum.
Protocol. The animals were divided into groups of 6 and subjected to the following treatment for each of the 2 human donors tested:
The mice treated with d-FEN (10 mg/kg/day, p.o.) received the drug daily in their drinking water beginning 10 days prior to inoculation with human PBMC. On the day of PBMC injection (3×10^7 human PBMC/mouse, i.p.) the dose of d-FEN was reduced to […]. The average daily water intakes and body weights of the mice were 6 ml and 20 g, respectively. Therefore, a dose of 6 mg/kg equaled 2 mg of d-FEN per 100 ml of water. Four days after reconstitution with human PBMC, 1×10^7 K562 human tumor cells/mouse were injected i.p. The animals were sacrificed between 11:00 and 13:00 h 13-18 days after K562 cell injection (17-22 and 27-32 days, respectively, after transfection with human PBMC and the start of d-FEN treatment). The animals were thoroughly necropsied and tumor sites counted, excised, weighed and fixed for histological analysis.
For reconstitution of SCID mice with human PBMC, 500 ml of venous blood was drawn into sterile plastic pouches containing preservative free heparin. Blood was drawn by Apheresis Lab nurses at LUMC (Loyola University Medical Center) and was diluted with an equal volume of HBSS. The diluted blood (20 ml) was layered over 10 ml of Histopaque 1077 (Sigma Chemical Company, St. Louis, Mo.) and centrifuged at 1000×g for 30 min. After centrifugation, the mononuclear cell layer was recovered from the interface and washed twice in HBSS. After microscopic enumeration, the PBMC were resuspended in HBSS at a concentration of 1×10^8 cells/ml, and 0.3 ml (3×10^7 cells) of the cell suspension was injected (i.p.) into each SCID mouse.
The K562 cell line originated from a chronic myelogenous leukemia patient and was obtained from Dr. T. Ellis (Director, Cellular Immunology Laboratory, LUMC). The K562 cells used for assessment of cytotoxic activity were maintained in long term cultures using Corning 25 cm^2 tissue culture flasks (Corning Glass Works, Corning, N.Y.) containing RPMI 1640 (Gibco Laboratories, Grand Island, N.Y.) supplemented with low LPS 10% fetal bovine serum (FBS; Gibco), 100 units/ml penicillin, 100 μg/ml streptomycin (Whittaker M. A. Bioproducts, Walkersville, Md.), 0.1 mM non-essential amino acids, and 2 mM L-glutamine (Gibco). This medium was used throughout, except where noted, and is referred to as "culture medium". The K562 cells were grown in suspension and were passaged three times per week by transfer of 10^6 K562 cells into a flask containing 10 ml of fresh culture medium. The K562 cells injected into the SCID mice were supplemented with fresh medium at a 1:3 dilution the day before administration. They were washed once in medium, pelleted by centrifugation at 500 ×g for 10 min., then resuspended at a concentration of 5×10^7. Subsequently, 0.2 ml (1×10^7 cells) of the cell suspension was injected (i.p.) into each SCID mouse. The K562 cells were administered to the animals four days after the injection of PBMC.

lymphocyte functions = details: Clancy and Lorens, 1996, Mathews et al.; cited from earlier work
[1] = cited from earlier work
[2] = K562 + PBMC + d-FEN (10 then 6 mg/kg/day p.o.)
[3] = K562 + PBMC + d-FEN (10 then 6 mg/kg/day p.o.), p = 0.05

In the case of CCN[C@@H](C)Cc1cccc(C(F)(F)F)c1 [d-FEN], the “Number of Mice Showing Multiple Tumor Sites” value (K562 human tumor cells; [2]) was 1/12, the “Percent of Mice Showing Multiple Tumor Sites / tumor metastasis” value (K562 human tumor cells; [2]) was 8% and the “Number of Mice Having Tumors” value (K562 human tumor cells; [3]) was 5/12. For the same molecule, the “Percent of Mice Having Tumors” value (K562 human tumor cells; [3]) was 42%, the “Body Weight” value (K562 human tumor cells; K562 + PBMC + d-FEN (10 then 6 mg/kg/day p.o., drinking water)) was 17.5 ± 2.1 g and the “incidence of histopathologically confirmed lymphomas in words” value (K562 human tumor cells; d-FEN treated SCID mice, p=0.05) was “significantly (p=0.05) reduced incidence”. The “body weights and water intakes in words” value (K562 human tumor cells; d-FEN treated vs control SCID mice) was “did not differ from those of the control animals”, the “tumor metastasis in words” value (K562 human tumor cells; d-FEN treated vs other two groups, p=0.6) was “did not reach significance” and the “anorexigenic action and weight loss” value (K562 human tumor cells; doses used during the studies) was “No effect of this type was observed”. For the same molecule, the largest tumor (K562 human tumor cells; one of the d-FEN treated mice, with metastasis) was 0.833 g, the “immune functions in experimental animal models, in words” value (lymphocyte functions) was “augment T and B lymphocyte functions, to increase cell-mediated cytotoxicity for natural killer cell (NK) tumor targets and to enhance cell-mediated activities for opportunistic microbial pathogens” and the “level in tissue and in plasma” value ([1]; 5 mg dextrofenfluramine per os) was “about 5 ng/ml”. The “conversion to metabolite dextronorfenfluramine” value ([1]; upon administration, in vivo) was “partially converts upon administration to its metabolite dextronorfenfluramine”.
